Results: ChEMBL document CHEMBL1201862, “PubChem BioAssay data set” (2004)
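How tested: cells in 96-well plates exposed to compound for 48 hours at five concentrations. GI50 is the concentration that inhibits growth by half.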 Calls of active or inactive are those of the source. Cut-off read from the data, not from the text of the source: active = GI50 up to about 1.1 µM and inactive = higher. Where a SMILES comes first, the peptide text is derived from it. The star is where a group is joined. CH2Cl = ClC*

Columns and labels:
Experiment in all cases: NCI anticancer screen, dose series, 48 h
[1] = system: HL-60
[2] = system: SK-MEL-28
[3] = system: IGROV-1
[4] = system: RXF 393
[5] = system: NCI-H226
[6] = system: HT-29
[7] = system: A549
[8] = system: SR
[9] = system: OVCAR-8
[10] = system: BT-549
[11] = system: EKVX
[12] = system: SK-MEL-5
[13] = system: NCI-H460
[14] = system: SN12C
[15] = system: UACC-62
[16] = system: TK-10
[17] = system: HCT-15
[18] = system: OVCAR-4
[19] = system: MDA-MB-231
[20] = system: CAKI-1

| Compound | GI50 [1] | GI50 [2] | GI50 [3] | GI50 [4] | GI50 [5] | GI50 [6] | GI50 [7] | GI50 [8] | GI50 [9] | GI50 [10] | GI50 [11] | GI50 [12] | GI50 [13] | GI50 [14] | GI50 [15] | GI50 [16] | GI50 [17] | GI50 [18] | GI50 [19] | GI50 [20] |
| --- | --- | --- | --- | --- | --- | --- | --- | --- | --- | --- | --- | --- | --- | --- | --- | --- | --- | --- | --- | --- |
| Cn1c2ccccc2c(=O)c2c(O)cc3c(c21)C=CC1(CCCC1)O3 | > 100 µM (inactive) | > 100 µM (inactive) | 61.7 µM (inactive) | 22.7 µM (inactive) | > 100 µM (inactive) | 2.67 µM (inactive) | > 100 µM (inactive) | 37.3 µM (inactive) | > 100 µM (inactive) | > 100 µM (inactive) | 20.8 µM (inactive) | > 100 µM (inactive) | > 100 µM (inactive) | > 100 µM (inactive) | > 100 µM (inactive) | > 100 µM (inactive) | > 100 µM | 41.7 µM (inactive) | > 100 µM (inactive) | > 100 µM (inactive) |
| CC(=O)NC(CC(C)C)C(=O)NC(Cc1ccccc1)C(=O)CCl (stereo not drawn) (Ac-Leu-Phe-CH2Cl; configuration not given here) | 2.21 µM (inactive) | 10.6 µM (inactive) | 16.1 µM (inactive) | 1.96 µM (inactive) | 21.6 µM (inactive) | 8.38 µM (inactive) | 20.7 µM (inactive) | 2.55 µM (inactive) | 4.69 µM (inactive) | 14.9 µM (inactive) | 21.1 µM (inactive) | 8.02 µM (inactive) | 20.8 µM (inactive) | 13.4 µM (inactive) | 11.7 µM (inactive) | 10.4 µM (inactive) | 3.16 µM | 18.3 µM (inactive) | 12.1 µM (inactive) | 17.4 µM (inactive) |
| Cc1cc(S(=O)(=O)Nc2nnc3cc(C(F)(F)F)cc(C)n23)c(S)cc1Cl | > 100 µM (inactive) | > 100 µM (inactive) | > 100 µM (inactive) | > 100 µM (inactive) | > 54.6 µM (inactive) | > 100 µM (inactive) | 21.3 µM (inactive) | > 100 µM (inactive) | > 100 µM (inactive) | > 35.2 µM (inactive) | > 100 µM (inactive) | 64.4 µM (inactive) | 19.5 µM (inactive) | > 100 µM (inactive) | 56.4 µM (inactive) | > 100 µM (inactive) | > 91.6 µM | > 100 µM (inactive) | > 83 µM (inactive) | 97.5 µM (inactive) |
| COc1ccc(C2=NNC(=O)c3ccccc3N2c2nc(-c3cccs3)nc3ccc(Br)cc23)cc1 | > 100 µM (inactive) | > 100 µM (inactive) | 63.5 µM (inactive) | 68.4 µM (inactive) | 19.8 µM (inactive) | > 100 µM (inactive) | 60.7 µM (inactive) | 42 µM (inactive) | 53.5 µM (inactive) | 37.5 µM (inactive) | 24.6 µM (inactive) | > 100 µM (inactive) | 40.4 µM (inactive) | 56 µM (inactive) | 64.1 µM (inactive) | 28.2 µM (inactive) | 34.2 µM | 39.8 µM (inactive) | 43.2 µM (inactive) | 76.2 µM (inactive) |
| CC[P+](c1ccccc1)(N(C)C)N(C)C | > 100 µM (inactive) | > 100 µM (inactive) | > 100 µM (inactive) | > 100 µM (inactive) | 59.8 µM (inactive) | > 100 µM (inactive) | > 100 µM (inactive) | > 100 µM (inactive) | > 100 µM (inactive) | > 100 µM (inactive) | > 100 µM (inactive) | 54.5 µM (inactive) | > 100 µM (inactive) | > 100 µM (inactive) | > 100 µM (inactive) | > 100 µM (inactive) | > 100 µM | > 100 µM (inactive) | > 100 µM (inactive) | > 100 µM (inactive) |
| COc1ccc(/C=C(/C#N)C(N)=O)cc1OC | > 100 µM (inactive) | > 100 µM (inactive) | > 100 µM (inactive) | > 100 µM (inactive) | > 100 µM (inactive) | > 100 µM (inactive) | > 100 µM (inactive) | > 100 µM (inactive) | > 100 µM (inactive) | > 100 µM (inactive) | > 100 µM (inactive) | > 100 µM (inactive) | > 100 µM (inactive) | > 100 µM (inactive) | > 100 µM (inactive) | > 100 µM (inactive) | > 100 µM | > 100 µM (inactive) | > 100 µM (inactive) | > 100 µM (inactive) |
| Nc1c(-c2ccc(Cl)c(Cl)c2)c2ccc([N+](=O)[O-])cc2c(=O)n1-c1nc2ccccc2s1 | 0.318 µM (active) | 18.2 µM (inactive) | 0.796 µM (active) | 0.689 µM (active) | 0.586 µM (active) | 0.824 µM (active) | 0.407 µM (active) | 0.417 µM (active) | 0.366 µM (active) | 0.762 µM (active) | 0.446 µM (active) | 0.328 µM (active) | 0.386 µM (active) | 0.335 µM (active) | 0.419 µM (active) | 0.594 µM (active) | 0.46 µM | 1.19 µM (inactive) | 0.614 µM (active) | 0.719 µM (active) |
| C=C(C=O)c1c2c(nc3ccccc13)C(=O)c1ccccc1C2=O | 0.31 µM (active) | 0.684 µM (active) | 0.252 µM (active) | 0.304 µM (active) | 0.966 µM (active) | 0.47 µM (active) | 1.86 µM (inactive) | 0.24 µM (active) | 0.434 µM (active) | 1.82 µM (inactive) | 1.19 µM (inactive) | 0.162 µM (active) | 0.581 µM (active) | 0.504 µM (active) | 0.918 µM (active) | 1.02 µM (active) | 0.298 µM | 1.77 µM (inactive) | 1.18 µM (inactive) | 0.52 µM (active) |
| O=C(N/N=C/c1c(-c2ccccc2)no[n+]1[O-])N1CCOCC1 | 23.3 µM (inactive) | > 100 µM (inactive) | > 100 µM (inactive) | > 100 µM (inactive) | > 100 µM (inactive) | > 100 µM (inactive) | > 100 µM (inactive) | 0.264 µM (active) | > 100 µM (inactive) | > 100 µM (inactive) | > 100 µM (inactive) | > 100 µM (inactive) | > 100 µM (inactive) | > 100 µM (inactive) | > 100 µM (inactive) | > 100 µM (inactive) | > 100 µM | > 100 µM (inactive) | > 100 µM (inactive) | > 100 µM (inactive) |
| CCCCC/N=C/c1c(O)c(O)c(C(C)C)c2cc(C)c(-c3c(C)cc4c(C(C)C)c(O)c(O)c(/C=N/CCCCC)c4c3O)c(O)c12 | 3.94 µM (inactive) | 6.19 µM (inactive) | 9.98 µM (inactive) | 11.2 µM (inactive) | 23 µM (inactive) | 2.88 µM (inactive) | 5.58 µM (inactive) | 4.24 µM (inactive) | 7.4 µM (inactive) | 7.87 µM (inactive) | 7.96 µM (inactive) | 6.3 µM (inactive) | 5.65 µM (inactive) | 7.94 µM (inactive) | 7.03 µM (inactive) | 15 µM (inactive) | 5.85 µM | – | 7.43 µM (inactive) | 18 µM (inactive) |
| Brc1cccc(/N=N/N2CCCC2)c1 | 16.4 µM (inactive) | – | > 100 µM (inactive) | > 100 µM (inactive) | > 100 µM (inactive) | – | – | 27.4 µM (inactive) | > 100 µM (inactive) | 68.9 µM (inactive) | 97.9 µM (inactive) | 66.2 µM (inactive) | > 100 µM (inactive) | > 100 µM (inactive) | > 100 µM (inactive) | > 100 µM (inactive) | 49.4 µM | > 100 µM (inactive) | > 100 µM (inactive) | 75.5 µM (inactive) |
| COc1ccc(/N=C(C)/C(C)=N/c2ccc(OC)cc2)cc1 | 52.2 µM (inactive) | > 100 µM (inactive) | > 100 µM (inactive) | > 100 µM (inactive) | > 100 µM (inactive) | 48.6 µM (inactive) | 37.9 µM (inactive) | 65.6 µM (inactive) | 58.6 µM (inactive) | 3.78 µM (inactive) | > 100 µM (inactive) | 64 µM (inactive) | 20.3 µM (inactive) | > 100 µM (inactive) | – | > 100 µM (inactive) | 15.6 µM | 17.7 µM (inactive) | > 100 µM (inactive) | 35.5 µM (inactive) |
| CO/C(=N\N=C\c1ccccc1F)c1ccncc1 | > 10 µM (inactive) | – | – | > 10 µM (inactive) | > 10 µM (inactive) | > 10 µM (inactive) | > 10 µM (inactive) | > 10 µM (inactive) | > 10 µM (inactive) | > 10 µM (inactive) | > 10 µM (inactive) | – | > 10 µM (inactive) | > 10 µM (inactive) | – | > 10 µM (inactive) | > 10 µM | > 10 µM (inactive) | > 10 µM (inactive) | > 10 µM (inactive) |
| CC1=C[C@H]([C@H]2C=C(C)C(C(N)=O)=CN2Cc2c(Cl)cccc2Cl)N(Cc2c(Cl)cccc2Cl)C=C1C(N)=O | > 75 µM (inactive) | > 75 µM (inactive) | – | 74.5 µM (inactive) | > 75 µM (inactive) | > 75 µM (inactive) | > 75 µM (inactive) | > 75 µM (inactive) | 52.7 µM (inactive) | > 75 µM (inactive) | > 75 µM (inactive) | > 75 µM (inactive) | > 75 µM (inactive) | > 75 µM (inactive) | > 75 µM (inactive) | > 75 µM (inactive) | > 75 µM | 55.5 µM (inactive) | > 75 µM (inactive) | > 75 µM (inactive) |
| N#Cc1ccc(Oc2nc3ccccc3nc2C(=O)O)cc1 | > 100 µM (inactive) | > 100 µM (inactive) | > 100 µM (inactive) | > 100 µM (inactive) | > 100 µM (inactive) | > 100 µM (inactive) | > 100 µM (inactive) | > 100 µM (inactive) | > 100 µM (inactive) | > 100 µM (inactive) | > 100 µM (inactive) | > 100 µM (inactive) | > 100 µM (inactive) | – | > 100 µM (inactive) | > 100 µM (inactive) | > 100 µM | > 100 µM (inactive) | > 100 µM (inactive) | > 100 µM (inactive) |
